This is an account of results in PubChem BioAssay (NCI).

Among the test systems are DMS 114 small cell lung; DMS 273 small cell lung; LXFL 529 NSCLC; M19-MEL melanoma; SNB-78 CNS; XF 498 CNS; BT-549 breast; MDA-N.
Experiment in all cases: NCI-60 cell line screen, 48 h

Structures are written as SMILES. “And” between values parts separate entries of the source, which are not always exact repeats. Equal values may be shown once.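 Briefly, cells in 96-well plates were exposed to five compound concentrations for 48 h, and endpoints were estimated by linear interpolation. GI50 = concentration required for 50% inhibition of growth. TGI: total growth inhibition.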

In the case of `COc1cc(CNc2ccc(C(C)C)cc2)cc(OC)c1OC`, the TGI in the test on DMS 114 small cell lung is 48.7 µM; in the test on DMS 273 small cell lung, 26.3 µM; in the test on LXFL 529 NSCLC, 48.7 µM; in the test on M19-MEL melanoma, 39 µM; in the test on SNB-78 CNS, greater than 100 µM; in the test with XF 498 CNS, 59 µM. The GI50 in the test on DMS 273 small cell lung is 13 µM.
For the molecule `COc1cc[nH]c1/C=C1\C(=O)Nc2ccc(F)c(I)c21`, in the test on BT-549 breast, the GI50 was greater than 25 µM and the TGI was greater than 25 µM.
With `COc1ccc(-c2cncn2-c2ccc(OC)cc2)cc1`, in the test on BT-549 breast, the GI50 is 12.3 µM and the TGI was determined as 32.5 µM.
For the molecule `CC(C)CC1=[N+]=C(NC#N)N=C(CCC(=O)Nc2ccccc2[N+](=O)[O-])C1`, the TGI in the test on DMS 114 small cell lung, with LXFL 529 NSCLC, in the test with M19-MEL melanoma and in the test on XF 498 CNS was greater than 100 µM throughout.
`Cc1ccc(C(O)c2cnc(C)n2Cc2ccccc2)cc1` (centres undefined): the TGI in the test with BT-549 breast and with MDA-N was greater than 100 µM each time.
In the case of `C[C@@H]1CN(CC(=O)N2CC(C)(C)c3nc(CO)c(Cc4ccc(F)cc4)cc32)[C@@H](CN2CCOC[C@H]2C)CN1`, in the test with BT-549 breast, the GI50 is 0.162 µM and the TGI is greater than 100 µM.
Turning to `C=C1C(=O)O[C@H]2[C@H]1CC/C(COC(=O)N1CCC[C@H]1C(=O)Nc1ccc(OC)c(C(N)=O)c1O)=C\CC[C@@]1(C)O[C@@H]21`, in the test on BT-549 breast, the GI50 is 1.62 µM and the TGI came out at 5.12 µM.
For the molecule `CCN(Cc1ccccc1OC)c1ccc(CO)c(Cl)c1`, in the test on BT-549 breast, the GI50 is 12.8 µM and the TGI is 26 µM.
For the molecule `CCCCN(Cc1ccc(F)cc1)c1ccc(CO)c(Cl)c1`, in the test with BT-549 breast, the GI50 was 19.1 µM and the TGI came to 34.6 µM.
Consider `CC1C(=O)C(C)C(c2ccccc2)N(N=O)C1c1ccccc1` (centres undefined), for which the TGI was greater than 1000 µM in the test on DMS 273 small cell lung; greater than 1000 µM with LXFL 529 NSCLC; greater than 1000 µM with M19-MEL melanoma; 306 µM with MDA-N; greater than 766 µM with SNB-78 CNS; 73.8 µM and 214 µM with XF 498 CNS. The GI50 with M19-MEL melanoma was greater than 1000 µM; with SNB-78 CNS, 220 µM; with XF 498 CNS, 53.2 µM.
On to `CCCCCCCCCCCCCCCCCCCCCC(=O)Nc1ccn(C2OC(CO)C(O)C2O)c(=O)n1` (centres undefined), for which the TGI in the test on DMS 114 small cell lung is greater than 43.2 µM; with DMS 273 small cell lung, greater than 100 µM; in the test on LXFL 529 NSCLC it was greater than 100 µM; in the test with M19-MEL melanoma, greater than 100 µM; in the test on SNB-78 CNS, greater than 100 µM; with XF 498 CNS, greater than 100 µM.
For `OCc1ccc(-c2nn(Cc3ccccc3)c3ccccc23)o1`, in the test with BT-549 breast, the GI50 is 17.3 µM and 22.7 µM; the TGI is 37.4 µM and 53 µM.
As to `CC(=O)O[C@@H]1CC2C(C)(C)CCCC2(C)C2=C1C(=O)C(C(C)C)=CC2=O` (some centres undefined), in the test on BT-549 breast, the GI50 is 0.621 µM and the TGI came out at 3.05 µM.
`CC(=O)Oc1ccc(O)c(O)c1C/C=C(\C)CC/C=C(\C)CC/C=C(\C)CCC=C(C)C`: the TGI amounted to 1.29 µM with DMS 114 small cell lung; 0.817 µM in the test on DMS 273 small cell lung; 1.05 µM with LXFL 529 NSCLC; 1.81 µM in the test with M19-MEL melanoma; 1.34 µM in the test on SNB-78 CNS; 0.818 µM with XF 498 CNS.
For the molecule `O=NNc1nc(-c2cccnc2)nc2ccccc12`, the TGI with BT-549 breast and with MDA-N was greater than 100 µM throughout.
For `CN(C)CCOc1ccc2c(c1)C/C(=C/c1ncc([N+](=O)[O-])n1C)C2=O`, the values for the TGI in the test with BT-549 breast and with MDA-N were 3.74 µM and 16.8 µM, respectively.
As to `COc1ccc(O)c(C#N)c1C#N`, the TGI with DMS 273 small cell lung, in the test with LXFL 529 NSCLC, with M19-MEL melanoma, with SNB-78 CNS and in the test with XF 498 CNS was greater than 100 µM in each case.
`CCc1cc(O)c(Cl)c(C)c1Cl`: the TGI came out at 36 µM in the test on BT-549 breast and 29.9 µM with MDA-N.
For `Cc1nc2sc(C(=O)Nc3ccccc3)c(N)c2cc1C(=O)/C=C/c1ccccc1`, in the test with BT-549 breast, the GI50 is 1.71 µM and the TGI amounted to 3.63 µM.
In the case of `CC/C=C\C/C=C\C/C=C\CCCCCCCC(=O)OCC`, the TGI in the test with DMS 114 small cell lung, with LXFL 529 NSCLC, with M19-MEL melanoma and in the test with XF 498 CNS was greater than 100 µM in each case.
For `COc1ccc2c3c(c(=O)n(C)c2c1OC)C=CC(C)(C)O3`, the TGI in the test with BT-549 breast is greater than 100 µM; with MDA-N, 62.2 µM.
`O=C1/C(=C/c2ccc(O)cc2)COc2ccc(-c3ccccc3)cc21`: in the test on BT-549 breast, the GI50 is 2.64 µM and the TGI came out at 13 µM.
For `O=C(CCl)N1c2ccccc2Sc2c1ccc1ccccc21`, in the test with BT-549 breast, the GI50 is 1.3 µM and the TGI amounted to 2.63 µM.
On to `Clc1nc(Cl)c2c(ncn2C/C=C\Cn2cnc3c(Cl)nc(Cl)nc32)n1`, for which, in the test on BT-549 breast, the GI50 was 1.61 µM and the TGI was 2.97 µM.
As for `COc1ccc2c(c1)OC(N(C(C)=O)C(C)=O)=C(C#N)C2c1ccc(F)cc1` (centres undefined), in the test on BT-549 breast, the GI50 is 2.22 µM and the TGI came out at 40.2 µM.
As for `CN(C)C(=S)N=Nc1c(O)[nH]c2ccccc12`, in the test on BT-549 breast, the GI50 is 0.763 µM and the TGI was 20.8 µM.
Turning to `Cn1nc(-c2ccccc2)c(C(=O)/C=C/c2ccccc2)c(N2CCOCC2)c1=O`, the TGI with DMS 114 small cell lung was 38.2 µM; with DMS 273 small cell lung, 51.4 µM; in the test on LXFL 529 NSCLC it was 34 µM; with M19-MEL melanoma it was 61.2 µM; in the test with XF 498 CNS, 30.7 µM.
Take `Oc1ccc(CCCCCCc2ccc(O)cc2)cc1`: in the test with BT-549 breast, the GI50 is 2.94 µM and the TGI came to 18.7 µM.
Take `CN(CCOc1ccc(C#N)cc1)CCOc1ccc(C#N)cc1`: in the test on BT-549 breast, the GI50 was 20.5 µM and the TGI is greater than 100 µM.
Take `c1cnc2[nH]cc(-c3csc(-c4cn(CCCCN5CCOCC5)c5ccccc45)n3)c2c1`: in the test on BT-549 breast, the GI50 was 2.13 µM and the TGI was determined as 5.19 µM.
Consider `CCOP(=O)(OCC)C(NC(c1ccccc1)c1ccccc1)c1cccc2ccccc12` (centres undefined), for which, in the test with BT-549 breast, the GI50 was 23.8 µM and the TGI came to 53.5 µM.
Consider `CCCCn1cnc2c(SC)ncnc21`, for which the TGI in the test on BT-549 breast and in the test on MDA-N was greater than 100 µM throughout.
